Structures are written as SMILES.

Here are results for 1 compound from paper PMC7367283, “A PIP2 substitute mediates voltage sensor-pore coupling in KCNQ activation” (Communications Biology, 2020).

The target of this data set is hERG (Homo sapiens, UniProt Q12809). The experiment in a line: Two-electrode voltage clamp of hERG in Xenopus oocytes. The settings on record: 10 µM CP1. In kind it is cell-based. From the text:
Since CP1 has a similar effect to PIP2 in mediating VSD-pore coupling in KCNQ channels, we tested if CP1 has effects on other ion channels that are also sensitive to PIP2 or are voltage activated and share general structural features of the VSD and the pore with KCNQ. […] On the other hand, NaV1.5 and KV4.2 are voltage-gated ion channels.
Fig. 6 Effects of CP1 on other ion channels expressed in Xenopus oocytes. a Currents of Kir1.1, CaV1.2, NaV1.5, hERG, and KV4.2 before and after application of 10 µM CP1, respectively. The voltages for holding, test, and returning pulses were Kir1.1, 0 mV, −100 to +60 mV, 0; CaV1.2, −100 mV, −100 to +60, −100 mV; NaV1.5, −100, −120 to +40 mV, −120 mV; […]; KV4.2, −80 mV, −100 mV to +80 mV, −40 mV; HCN4, −30 mV, −30 to −140 mV, −120 mV. b Current–voltage relations of Kir1.1 channel in the absence or presence of 10 µM CP1 (n = 7). c–g G–V relations of indicated channels with and without 10 µM CP1. The ΔV1/2 of G–V relations (mV) are CaV1.2, 3.38 ± 0.71 mV (c); NaV1.5, −2.26 ± 0.95 mV (d); hERG, 6.85 ± 1.81 mV (e); KV 4.2, −2.26 ± 2.88 mV (f); HCN4, 17.13 ± 1.59 mV (g).
Complementary DNA (cDNA) encoding human KCNQ1 (UniProtKB/Swiss‐Prot under accession no. P51787), KCNQ2 (O43526), KCNQ3 (O43525), KCNE1 (P15382), Kir1.1 (P48048), hERG (Q12809), KV4.2 (Q63881), NaV1.5 (Q14524), NaV β1 (Q07699), CaV1.2 (Q13936), CaV β1a (Q02641), CaV α2/δ1 (P54289), and HCN4 (Q9Y3Q4) were subcloned into oocyte expression vectors, respectively. Site-directed mutations of the KCNQ1 channel were all produced by overlap extension polymerase chain reaction (PCR) with high-fidelity Pfu polymerase (Stratagene, CA). The presence of the desired mutation was verified by sequencing the PCR-amplified regions. All the primer sequences used in this study are available in Supplementary Table 1. The complementary RNA (cRNA) of all these channels and mutations was transcribed in vitro with the T3, T7, or SP6 polymerase mMessage mMachine kit (Invitrogen, Thermo Fisher Scientific, MO).
The whole-oocyte ionic currents were recorded with a GeneClamp 500B amplifier (Axon Instruments, CA) or iTEV90 amplifier (HEKA, Germany) and then sampled at 1 kHz and low-pass-filtered at 2 kHz. The Patchmaster software (HEKA, Germany) was used to acquire data. The Kir1.1 current was recorded with a high K^+ bath solution containing (in mM) 96 KCl, 4 NaCl, 1 CaCl2, 2 MgCl2, and 10 HEPES, pH 7.3–7.4. The HCN4 current was recorded in ND66 solution containing (in mM) 66 NaCl, 32 KCl, 1.8 CaCl2, 1 MgCl2, and 5 HEPES, pH 7.6. All the other potassium channels were recorded in ND96 solution. The currents of CaV1.2 channel were recorded in 40 mM Ba^2+ bath solution containing (in mM) 40 Ba(OH)2, 50 TEA-OH, 2 KOH, and 5 HEPES, adjusted to pH 7.4 with methanesulfonic acid. CP1 (DISODIUM 5-BROMO-2-[9-CHLORO-3-(SULFONATOOXY) NAPHTHO [1,2-B] THIEN-2-YL]-1H-INDOL-3-YL SULFATE, Sigma-Aldrich, MO) and Chromanol 293B (Sigma-Aldrich, MO) were dissolved in bath solutions. All the chemicals were purchased from Sigma-Aldrich. To measure the I–V relations of the Kir1.1 channel, the test voltage was set from −100 to +60 mV for 1 s with 20-mV increments. The test pulses were stepped from a holding potential of 0 mV and then stepped back to 0 mV. The HCN4 currents were recorded by a test pulse between −30 and −140 mV in 10-mV step from a holding potential of −30 mV. For all the other potassium channels and CaV1.2 channel, the holding potential was −80 or −100 mV, and the test pulse was applied with 10-mV increment, which was followed with a repolarization pulse at −40 mV before returning to the holding potential. The durations of test and the repolarization pulse vary for different channels to allow the activation and deactivation of the channel to reach their steady states.
On the technique in general: Two-electrode voltage clamp holds a large cell at a set potential and records current.

Sequence of hERG (Q12809 whole entry): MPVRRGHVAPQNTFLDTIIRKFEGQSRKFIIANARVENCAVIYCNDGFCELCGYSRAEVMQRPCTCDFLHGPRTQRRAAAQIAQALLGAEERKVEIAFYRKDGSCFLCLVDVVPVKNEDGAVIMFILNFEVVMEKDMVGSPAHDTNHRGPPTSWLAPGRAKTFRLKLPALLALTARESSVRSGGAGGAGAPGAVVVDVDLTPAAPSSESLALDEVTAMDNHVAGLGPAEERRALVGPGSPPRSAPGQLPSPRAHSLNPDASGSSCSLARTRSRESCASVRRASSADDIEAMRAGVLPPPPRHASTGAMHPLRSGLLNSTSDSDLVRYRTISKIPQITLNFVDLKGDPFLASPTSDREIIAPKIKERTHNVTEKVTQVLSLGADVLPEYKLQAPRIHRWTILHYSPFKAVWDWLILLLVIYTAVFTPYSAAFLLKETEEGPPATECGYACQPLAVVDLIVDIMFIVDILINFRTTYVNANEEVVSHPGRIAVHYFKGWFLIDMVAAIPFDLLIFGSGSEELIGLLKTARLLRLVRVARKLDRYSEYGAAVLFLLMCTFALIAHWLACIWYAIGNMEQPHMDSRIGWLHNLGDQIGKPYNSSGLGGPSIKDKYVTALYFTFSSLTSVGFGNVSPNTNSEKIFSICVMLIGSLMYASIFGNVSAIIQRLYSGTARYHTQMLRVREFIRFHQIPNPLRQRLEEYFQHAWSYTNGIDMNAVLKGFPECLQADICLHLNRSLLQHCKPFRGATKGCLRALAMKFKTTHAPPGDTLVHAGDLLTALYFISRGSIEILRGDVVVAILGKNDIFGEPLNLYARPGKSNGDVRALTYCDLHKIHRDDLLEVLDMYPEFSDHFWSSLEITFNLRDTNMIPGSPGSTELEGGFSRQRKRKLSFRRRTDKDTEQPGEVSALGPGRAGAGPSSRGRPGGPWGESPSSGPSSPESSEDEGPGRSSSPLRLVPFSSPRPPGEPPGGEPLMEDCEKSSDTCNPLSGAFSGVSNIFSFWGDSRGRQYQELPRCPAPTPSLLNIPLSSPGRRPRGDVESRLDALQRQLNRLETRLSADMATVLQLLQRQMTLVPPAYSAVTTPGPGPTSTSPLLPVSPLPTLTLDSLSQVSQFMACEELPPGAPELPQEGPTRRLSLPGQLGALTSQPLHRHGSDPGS

For `O=S(=O)([O-])Oc1c(-c2sc3c(ccc4cccc(Cl)c43)c2OS(=O)(=O)[O-])[nH]c2ccc(Br)cc12.[Na+].[Na+]` [CP1, DISODIUM 5-BROMO-2-[9-CHLORO-3-(SULFONATOOXY) NAPHTHO [1,2-B] THIEN-2-YL]-1H-INDOL-3-YL SULFATE], the “ΔV1/2 of G–V relations” value came to 6.85 ± 1.81 mV. The “G/Gmax Mean (Fig. 6e)” value (voltage 0 mV) is given as 0.8601. Further, the “G/Gmax Mean (Fig. 6e)” value (voltage 10 mV) came to 0.9576. The “G/Gmax Mean (Fig. 6e)” value (voltage 20 mV) is on record as 1.0000. Further, the “G/Gmax Mean (Fig. 6e)” value (voltage 30 mV) came out at 0.9916. Moreover, the “G/Gmax Mean (Fig. 6e)” value (voltage 40 mV) is reported as 0.9932. Moreover, for the setting “voltage 50 mV”, the “G/Gmax Mean (Fig. 6e)” value came out at 0.9886. Also, the “G/Gmax Mean (Fig. 6e)” value (voltage 60 mV) was found to be 0.9837. For the same compound, the “G/Gmax Mean (Fig. 6e)” value (voltage -10 mV) is recorded as 0.6448. For the same compound, the “G/Gmax Mean (Fig. 6e)” value (voltage -20 mV) was found to be 0.3564. For the same compound, the “G/Gmax Mean (Fig. 6e)” value (voltage -30 mV) worked out at 0.1368. In addition, the “G/Gmax Mean (Fig. 6e)” value (voltage -40 mV) was found to be 0.0404. For the same compound, the “G/Gmax Mean (Fig. 6e)” value (voltage -50 mV) is reported as 0.0144. Further, the “G/Gmax Mean (Fig. 6e)” value (voltage -60 mV) is 0.0098. In addition, the “G/Gmax Mean (Fig. 6e)” value (voltage -70 mV) was found to be 0.0091. The “G/Gmax Mean (Fig. 6e)” value (voltage -80 mV) is recorded as 0.0089. For the same compound, under “voltage -90 mV”, the “G/Gmax Mean (Fig. 6e)” value is listed as 0.0084. For the same compound, the “G/Gmax Mean (Fig. 6e)” value (voltage -100 mV) was determined as 0.0080. Moreover, the “G/Gmax Mean (Fig. 6e)” value (voltage -110 mV) turned out to be 0.0069. For the same compound, the “G/Gmax Mean (Fig. 6e)” value (voltage -120 mV) stood at 0.0065.
